Measured values from paper PMC5459853, “Cathepsin S inhibition combines control of systemic and peripheral pathomechanisms of autoimmune tissue injury” (Scientific Reports, 2017).

Tests used:
[1] = biological target: T1, Human Cat-F (Homo sapiens, UniProt Q9UBX1); assay: Enzymatic isoform-selectivity assay, Cat-F; type: biochemical
T1 sequence (Q9UBX1 271-484): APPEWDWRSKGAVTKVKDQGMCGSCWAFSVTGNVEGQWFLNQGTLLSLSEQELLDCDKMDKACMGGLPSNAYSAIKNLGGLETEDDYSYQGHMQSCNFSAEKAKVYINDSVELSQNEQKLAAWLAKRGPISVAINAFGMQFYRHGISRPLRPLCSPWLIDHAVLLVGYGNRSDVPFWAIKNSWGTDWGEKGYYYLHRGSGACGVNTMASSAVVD
Method: RO5459072 was provided by F. Hoffmann-La Roche, Ltd., Basel, Switzerland. It is a competitive inhibitor of the active site of Cat-S and its nitrile function allows covalent reversible inhibition of Cat-S. The synthesis of RO5459072 has been described in WO 2010121918 and WO 2013068434. Recombinant cathepsins were produced in-house or were purchased from commercial vendors. Initial enzymatic assays to determine isoform-selectivity in vitro were performed as previously described, [23]. […] For this the Cat-S-dependent hydrolysis of the fluorogenic substrate Z-Phe-Arg-AMC (Sigma Aldrich) was followed at various inhibitor concentrations. The active fraction of Cat-S was detemined as 70% with a HPLC assay measuring modification of Cat-S with the covalent inhibitor LHVS. The buffer (100 mM potassium phosphate, 50 mM NaCl, 5 mM EDTA, 5 mM TCEP, pH 6) was thoroughly degassed prior to perfoming measurements to prevent oxidation of the catalytic cystein residue by dissolved oxygen. For the Ki-determination the substrate was employed at 10 µM = KM. All kinetic measurements were performad on a SFM-3000 stopped-flow instrument (Bio-Logic Science Instruments) and data were analyzed with GraphPad Prism v5.

[2] = system: MRL-(Fas)lpr mice; assay: Experimental lupus nephritis, late onset of treatment week 15 to 19; type: in vivo; conditions: late onset week 15-19
Method: To further assess the potency of Cat-S inhibition to control advanced lupus nephritis we performed identical experiments with the highest dose of RO5459072 and MMF, which were not initiated before week 15 of age and continued for only 4 weeks and terminated again at week 19.
Four-week-old female MRL-(Fas)lpr mice were purchased from Harlan Winkelmann (Borchen, Germany) and kept under pathogen-free conditions in a 12 hour light and dark cycle with free access to food and water. All animal experiments were performed in accordance with the European protection laws of animal welfare, and with approval by the local government authorities Regierung von Oberbayern (reference number: 55.2.1-54-2532.2-11-12). At 11 or 15 weeks of age only mice with proteinuria (Albustix, Bayer AG, Leverkusen, Germany) were randomized into five different groups (n = 10) receiving different medicated diets: Three groups were fed with chow mixed with either 3, 10 or 30 mg/kg/day RO5459072, another group’s chow was mixed with 100 mg/kg/day mycophenolate mofetil (MMF), and one group received a standard diet (vehicle). The dose of MMF was chosen according to several studies reporting strong efficacy on SLE and lupus nephritis in MRL-(Fas)lpr mice[24]–[26]. […] At the age of 19 weeks all mice were sacrificed by cervical dislocation. Blood and urine samples were collected at different time points as indicated. In other experiments 7 week old female MRL-(Fas)lpr mice were randomized into three groups (n = 3) to receive a single intravenous injection of 10 µg sterile recombinant Cat-S and one group receiving vehicle (100 µl sterile PBS). One of the Cat-S groups was pretreated with 30 mg/kg/day RO5459072 starting one week prior to Cat-S injection; another group was pretreated with a total of four daily intra-peritoneal injections of the PAR-2 inhibitor GB83 (10 mg/kg).
Kidney tissue samples were collected from all mice and fixed overnight in 4% buffered formalin. Subsequently the fixed tissue samples were embedded in paraffin and cut into 4 µm thick serial sections. Kidney paraffin sections were stained with periodic acid-Schiff (PAS) reaction using standardized protocols as described. Scoring of lupus nephritis activity and chronicity indices was performed according to human lupus nephritis, [43]. Methenamine silver staining was performed on paraffin embedded kidney sections and semiquantitatively scored form 0–3 by a blinded observer. For immunostaining the following primary antibodies were used: anti-mouse CD3 (Abcam, Cambridge, UK), complement C3c (Biobyt Ltd, Cambridge, UK), CD31 (Dianova GmbH, Hamburg, Germany), WT1 (Santa Cruz Biotechnology, Dallas, Texas) and nephrin (Acris Antibodies, San Diego, CA). The immunostaining for C3c and CD31 were analyzed using the ImageJ software by measuring positively stained area and dividing it by the total area of the glomerulus and reported as percentage of +ve area. Sections stained for WT1/nephrin and CD3 were evaluated by counting positive cells per glomerulus. All the morphometric analysis were carried out in a blinded fashion.
Urinary albumin/creatinine ratios were determined using the Mouse Albumin ELISA Quantitation set (Bethyl Laboratories, Montgomery, TX) and the Creatinine FS kit (DiaSys Diagnostic Systems, Holzheim, Germany)[44]. BUN levels were determined in plasma samples using a Urea FS kit (DiaSys Diagnostic Systems). Mouse IgM, IgG and its isotypes IgG1, IgG2a and IgG2b plasma levels were measured using ELISA Sets (Bethyl Laboratories) at a plasma dilution of 1:1,000 to 1:100,000. Double-stranded DNA IgG and IgM antibodies were quantified as described. Briefly, 96 well Nunc-Immuno plates (Thermo Fisher Scientific, Roskilde, Denmark) were coated with poly-L-lysine (1:1 diluted with PBS) and incubated for two hours. After washing the plates, the plates were coated with 1 µg/ml mouse tail dsDNA sparing the wells for standards, which were coated with anti-mIgG and anti-mIgM (Bethyl Laboratories). […]

[3] = extensive screening studies in mice, rats, monkeys and humans preceding clinical trial NCT01701985; cited from earlier work

Cn1cc(-c2ccc(S(=O)(=O)[C@@H]3C[C@@H](C(=O)NC4(C#N)CC4)N(C(=O)C4(C(F)(F)F)CC4)C3)c(C(F)(F)F)c2)cn1 [RO5459072]
IC50 [1]: > 1 µM | IC50, Human Cat-F [1]: No sub-micro molar inhibition | lupus nephritis disease activity index [2]: significantly reduced | lupus nephritis disease chronicity index [2]: failed to significantly suppress | proteinuria and BUN at week 19 compared to control mice [2]: significantly reduced | plasma IgG and its isotypes and anti-dsDNA IgG ([2]; highest dose of RO5459072, MMF): significantly suppressed | drug safety signals [3]: did not show any signals regarding drug safety
